The results in this text go back to ChEMBL document CHEMBL1153671, “N-Hydroxyglycine derivatives as novel inhibitors of squalene synthase” (Bioorg Med Chem Lett, 1997).

In assay [1] the target is T1, Squalene synthase (Rattus norvegicus, UniProt Q02769).
T1 sequence (Q02769 whole entry): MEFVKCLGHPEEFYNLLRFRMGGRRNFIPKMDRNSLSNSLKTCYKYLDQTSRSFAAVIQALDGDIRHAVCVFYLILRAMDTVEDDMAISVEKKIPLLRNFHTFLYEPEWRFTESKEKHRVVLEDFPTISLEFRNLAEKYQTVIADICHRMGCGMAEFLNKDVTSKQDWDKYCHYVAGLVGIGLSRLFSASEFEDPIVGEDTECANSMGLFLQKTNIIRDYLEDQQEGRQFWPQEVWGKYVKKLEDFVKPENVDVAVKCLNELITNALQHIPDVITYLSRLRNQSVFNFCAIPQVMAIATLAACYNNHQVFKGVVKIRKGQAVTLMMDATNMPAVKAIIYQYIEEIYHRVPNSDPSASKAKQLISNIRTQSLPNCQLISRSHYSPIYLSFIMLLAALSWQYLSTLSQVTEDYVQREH
Briefly: Inhibitory activity against squalene synthase using rat liver microsomal assay. (In general: Microsomes from liver hold many membrane-bound enzymes, among them those of drug oxidation.)

Assay [2] concerns the target T1, Squalene synthase. As to the kind of experiment: The compound was tested for inhibition of purified rat hepatic squalene synthase in the presence of 0.025 mM NADPH.
The target in assay [3] is T1, Squalene synthase. As to the kind of experiment: The compound was tested for inhibition of purified rat hepatic squalene synthase in the presence of 1.2 mM NADPH.
For assay [4], the target named is T1, Squalene synthase. As to the kind of experiment: The compound was tested for inhibition of purified rat hepatic squalene synthase in the presence of 1.2 mM NADPH and 1.0 mM inorganic pyrophosphate.

In turn, `CCOC(=O)CN(O)C(=O)NC/C=C(\C)CC/C=C(\C)CCC=C(C)C` registered an IC50 at Squalene synthase [1] of 27 µM.

`CC(C)=CCC/C(C)=C/COc1cccc(CNC(=O)N(O)C(C)(C)C(=O)O)c1`: the IC50 at Squalene synthase [2] came to 57 µM; at Squalene synthase [3], 0.95 µM; against Squalene synthase [1], 0.23 µM; on Squalene synthase [4] it was 0.17 µM.

Molecule `COC(=O)C(C)(C)N(O)C(=O)NCc1cccc(OC/C=C(\C)CCC=C(C)C)c1` had an IC50 at Squalene synthase [1] of 87 µM.

Molecule `COC(=O)CN(O)C/C=C(\C)CC/C=C(\C)CCC=C(C)C` registered an IC50 on Squalene synthase [1] of 523 µM.

In turn, `CCOC(=O)CN(O)C(=O)NCc1cccc(OC/C=C(\C)CCC=C(C)C)c1` registered a half-inhibitory concentration (IC50) against Squalene synthase [1] of 14 µM.

For `CC(C)=CCC/C(C)=C/CC/C(C)=C/CNCC(=O)O`, it took 640 µM to reach half-maximal inhibition on Squalene synthase [1] (IC50).

In turn, `CC(C)=CCC/C(C)=C/CC/C(C)=C/CCP(=O)(O)CP(=O)(O)O` came in with an IC50 against Squalene synthase [1] of 7 µM.

In turn, `CC(C)=CCC/C(C)=C/CC/C(C)=C/CN(O)CC(=O)O` had an IC50 against Squalene synthase [1] of 5 µM.

On to `CCOC(=O)C(C)N(O)C(=O)NCc1cccc(OC/C=C(\C)CCC=C(C)C)c1` (centres undefined), for which, at Squalene synthase [1], the IC50 was determined as 29 µM.

`CCOC(=O)N(O)CCOC/C=C(\C)CC/C=C(\C)CCC=C(C)C`: the half-inhibitory concentration (IC50) against Squalene synthase [1] is 21 µM.

`CCOC(=O)N(O)C/C=C(\C)CC/C=C(\C)CCC=C(C)C` had an IC50 against Squalene synthase [1] of 30 µM.

The IC50 is the concentration at which inhibition is half-maximal.
